Tests used:
[1] = Half-life period was determined, by hydrolyzing under mild conditions (pH = 8.0, 25 degrees Celsius); type: ADME
[2] = molecular target: T1, Neutrophil elastase (Homo sapiens, UniProt P08246); assay: Concentration required for inhibition of human leukocyte elastase (HLE)
T1 sequence (P08246 whole entry): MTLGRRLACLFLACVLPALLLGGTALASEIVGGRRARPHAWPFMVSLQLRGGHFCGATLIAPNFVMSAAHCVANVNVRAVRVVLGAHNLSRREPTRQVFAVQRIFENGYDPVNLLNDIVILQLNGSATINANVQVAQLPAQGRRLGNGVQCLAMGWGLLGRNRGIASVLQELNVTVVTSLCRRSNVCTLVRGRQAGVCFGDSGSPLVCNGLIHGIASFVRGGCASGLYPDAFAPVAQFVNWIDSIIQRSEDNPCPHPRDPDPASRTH

[3] = molecular target: T2, Neutrophil elastase (Homo sapiens) (UniProt P08246); assay: Human leukocyte elastase (HLE) inhibitory activity is reported as kinetic constant (kobs/[I] - time dependent inhibition)
T2 sequence (whole entry): T1 sequence (P08246 whole entry)

Row | SMILES | half-life [1] | Ki [2] | k obs / 1 [3]
1 | CC[C@@H]1C(=O)N[C@H]1Oc1ccc(C(=O)O)cc1 | ~1920 min | 290 µM | –
2 | CCOC(=O)N1C(=O)[C@@H](CC)[C@@H]1Oc1ccc(C(=O)O)cc1 | – | – | 6350 M⁻¹ s⁻¹
3 | CC[C@@H]1C(=O)N(C(=O)NCc2ccccc2)[C@H]1Oc1ccc(C(=O)O)cc1 | – | – | 2480 M⁻¹ s⁻¹
4 | CC[C@@H]1C(=O)N(C(=O)NC)[C@H]1Oc1ccc(C(=O)O)cc1 | – | 16.5 µM | –
5 | CC[C@@H]1C(=O)N(C(C)=O)[C@H]1Oc1ccc(C(=O)O)cc1 | ~540 min | – | 6680 M⁻¹ s⁻¹
6 | CC[C@@H]1C(=O)N(C(C)=O)[C@H]1OC(C)=O (racemic) | ~120 min | – | –

Source: ChEMBL document CHEMBL1126431, “The effect of N-acyl substituents on the stability of monocyclic -lactam inhibitors of human leukocyte elastase” (Bioorg Med Chem Lett, 1992)
